Patent publication US10869844B2, “Methods for the treatment of depression” (Janssen Pharmaceutica NV, priority 2014, dated 2020)
Like-named read-outs stand apart in the source and are kept apart here.

What was measured:
adult subjects with TRD [1] = system: adult subjects with TRD
adult subjects with TRD [2] = format: in vivo, human; settings: for Non-responders % / Non-responders N / Responders % (MADRS total score reduction >50% TRD2001, ≥50% TRD2002) / Responders N (MADRS total score reduction >50% TRD2001, ≥50% TRD2002): after first infusion (Day 2 TRD2001, Day 3 or 4 TRD2002)
Protocol: Association between changes in MADRS total score from baseline and the SNP rs6265 after a single dose was evaluated in placebo subjects and active subjects using an ANCOVA model under a dominant model with baseline MADRS total score, and grouped genotype (Val/Val or Met carrier). A statistically significant result was found in active subjects (p=0.02).
Association between the % responders and the SNP rs6265 after a single dose was evaluated in placebo subjects and active subjects using a logistic regression model under a dominant model with baseline MADRS total score and grouped genotype (Val/Val or Met carrier). A statistically significant result was found in active subjects (p=0.03).
Association between the % remitters and the SNP rs6265 after a single dose was evaluated in placebo subjects and as well as in active subjects using a logistic regression model under a dominant model with baseline MADRS total score and grouped genotype (Val/Val or Met carrier).

NMDA receptor = settings: S-enantiomer compared with ketamine; cited from earlier work
[3] = Val/Val, DAY 02, randomized to esketamine Day 1
[4] = Val/Val, DAY 07, randomized to esketamine Day 1
[5] = Val/Val, DAY 07, randomized to placebo Day 1, esketamine from day 4 onward
[6] = Val/Val, DAY 17, randomized to esketamine Day 1
[7] = Val/Val, DAY 17, randomized to placebo Day 1, esketamine from day 4 onward
[8] = Val/Val, DAY 35, randomized to esketamine Day 1
[9] = Val/Val, DAY 35, randomized to placebo Day 1, esketamine from day 4 onward
[10] = Val/Val, Day 0 after Day 17, all responders (Day 17)
[11] = Val/Val, Day 0 after Day 17, esketamine responders (Day 17) per Day 1 randomization
[12] = Val/Val, Day 11 after Day 17, all responders (Day 17)
[13] = esketamine subjects, Days 2, 7, 17 and 35

## CN[C@]1(c2ccccc2Cl)CCCCC1=O.Cl [Esketamine, (S)-2-(2-chlorophenyl)-2-(methylamino)cyclohexanone hydrochloride]
Adult subjects with TRD [1]; [3]
  Remitters % (MADRS total score 10): 62.5%
  Remitters No. (MADRS total score 10): 5
  Responders % (MADRS total score reduction >50%): 75.0%
  Responders No. (MADRS total score reduction >50%): 6
Adult subjects with TRD [1]; [4]
  Non-remitters %: 25.0%
  Non-remitters No.: 2
  Non-responders %: 25.0%
  Non-responders No.: 2
  Remitters % (MADRS total score 10): 75.0%
  Remitters No. (MADRS total score 10): 6
  Responders % (MADRS total score reduction >50%): 75.0%
  Responders No. (MADRS total score reduction >50%): 6
Adult subjects with TRD [1]; [5]
  Non-remitters %: 42.9%
  Non-remitters No.: 3
  Non-responders %: 28.6%
  Non-responders No.: 2
  Remitters % (MADRS total score 10): 57.1%
  Remitters No. (MADRS total score 10): 4
  Responders % (MADRS total score reduction >50%): 71.4%
  Responders No. (MADRS total score reduction >50%): 5
Adult subjects with TRD [1]; [6]
  Non-remitters %: 12.5%
  Non-remitters No.: 1
  Non-responders %: 12.5%
  Non-responders No.: 1
  Remitters % (MADRS total score 10): 87.5%
  Remitters No. (MADRS total score 10): 7
  Responders % (MADRS total score reduction >50%): 87.5%
  Responders No. (MADRS total score reduction >50%): 7
Adult subjects with TRD [1]; [7]
  Non-remitters %: 57.1%
  Non-remitters No.: 4
  Non-responders %: 28.6%
  Non-responders No.: 2
  Remitters % (MADRS total score 10): 42.9%
  Remitters No. (MADRS total score 10): 3
  Responders % (MADRS total score reduction >50%): 71.4%
  Responders No. (MADRS total score reduction >50%): 5
Adult subjects with TRD [1]; [8]
  Non-remitters %: 12.5%
  Non-remitters No.: 1
  Non-responders %: 12.5%
  Non-responders No.: 1
  Remitters % (MADRS total score 10): 87.5%
  Remitters No. (MADRS total score 10): 7
  Responders % (MADRS total score reduction >50%): 87.5%
  Responders No. (MADRS total score reduction >50%): 7
Adult subjects with TRD [1]; [9]
  Non-remitters %: 42.9%
  Non-remitters No.: 3
  Non-responders %: 42.9%
  Non-responders No.: 3
  Remitters % (MADRS total score 10): 57.1%
  Remitters No. (MADRS total score 10): 4
  Responders % (MADRS total score reduction >50%): 57.1%
  Responders No. (MADRS total score reduction >50%): 4
Adult subjects with TRD [1]; [10]
  Duration of response, survival function estimate: Failure: 0
  Duration of response, survival function estimate: Survival: 1.0000
Adult subjects with TRD [1]; [11]
  Duration of response, survival function estimate: Failure: 0
  Duration of response, survival function estimate: Survival: 1.0000
Adult subjects with TRD [1]; [12]
  Duration of response, survival function estimate: Failure: 0.0833
  Duration of response, survival function estimate: Survival: 0.9167
Adult subjects with TRD [1]; Val/Val, by Day 35, of 7
  Subjects who remain well, number: 7
Adult subjects with TRD [1]; all esketamine subjects per Day 1 randomization (Val/Val and Met carriers)
  Responders on Day 17, number: 13
Adult subjects with TRD [1]; [13]
  Remit rates, Val/Val vs Met carriers: remit rates were higher in Val/Val subjects than in Met carriers at all timepoints
  Response rates, Val/Val vs Met carriers: response rates were higher in Val/Val subjects than in Met carriers
Adult subjects with TRD [2]; Met carriers
  Non-responders %: 88.9%
  Non-responders N: 8
  Responders % (MADRS total score reduction >50% TRD2001, ≥50% TRD2002): 11.1%
  Responders N (MADRS total score reduction >50% TRD2001, ≥50% TRD2002): 1
Adult subjects with TRD [2]; Val/Val
  Non-responders %: 25.0%
  Non-responders N: 2
  Responders % (MADRS total score reduction >50% TRD2001, ≥50% TRD2002): 75.0%
  Responders N (MADRS total score reduction >50% TRD2001, ≥50% TRD2002): 6
Adult subjects with TRD [2]; acute, single dose administration
  Clinical response associated with Met allele of Val66Met rs6265: smaller clinical response
NMDA receptor
  Potency or affinity for the NMDA receptor: higher potency or affinity
